Data: EP0227431A1, “Heterocyclic amides” (BEECHAM GROUP PLC, priority 1985, dated 1987)

How the values were obtained:
[1] = molecular target: T1, 5-Lipoxygenase enzyme (10,000 g supernatant from RBL-1 cells) (Rattus norvegicus, UniProt P12527); experiment: Inhibition of 5-Lipoxygenase Activity (Method B); assay type: biochemical; settings: decrease in formation of 5-HETE and 5,12-diHETE relative to control
T1 construct: 5-Lipoxygenase enzyme was prepared as a 10,000 g supernatant from RBL-1 cells; endogenous in cells; host or cells: RBL-1 cells (10,000 g supernatant, method of Jakschik)
T1 sequence (P12527 1-673): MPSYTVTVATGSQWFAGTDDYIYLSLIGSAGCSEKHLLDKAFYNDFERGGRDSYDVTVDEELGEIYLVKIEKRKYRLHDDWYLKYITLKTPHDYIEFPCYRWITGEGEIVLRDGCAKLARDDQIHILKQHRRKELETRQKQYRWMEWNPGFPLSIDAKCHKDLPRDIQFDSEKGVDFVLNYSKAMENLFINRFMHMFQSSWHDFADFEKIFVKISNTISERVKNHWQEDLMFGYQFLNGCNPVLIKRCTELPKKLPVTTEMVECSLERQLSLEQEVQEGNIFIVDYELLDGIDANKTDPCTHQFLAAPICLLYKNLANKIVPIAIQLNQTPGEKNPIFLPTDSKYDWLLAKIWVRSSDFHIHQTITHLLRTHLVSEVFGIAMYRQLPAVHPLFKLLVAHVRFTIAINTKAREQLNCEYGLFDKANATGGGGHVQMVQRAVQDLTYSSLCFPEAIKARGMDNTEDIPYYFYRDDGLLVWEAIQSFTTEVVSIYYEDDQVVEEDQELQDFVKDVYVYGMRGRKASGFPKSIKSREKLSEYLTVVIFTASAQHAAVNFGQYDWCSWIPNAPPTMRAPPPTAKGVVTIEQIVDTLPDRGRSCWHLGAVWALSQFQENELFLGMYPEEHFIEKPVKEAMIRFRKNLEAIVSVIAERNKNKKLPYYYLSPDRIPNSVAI
Description: Inhibition of 5-Lipoxygenase Activity
5-Lipoxygenase enzyme was prepared as a 10,000 g supernatant from RBL-1 cells by the method of Jakschik [Jakschik, B.A., F.F. Sun, L.M. Lee, and M.M.Steinhoff, 1980, Biochem. Biophys. Res. Comm. 95, 103]. The 10,000 g supernatant was diluted with homogenization buffer to the equivalent of 1.5 - 2.5 x 10^7 cells. ml-^1 and made 2mM with respect to CaCl2. Aliquots of 0.5 ml were then dispensed into tubes, and incubated at 29 °C with 5 µl ethanol or compound in ethanol at the desired concentration for 2 min. Then [1-^14C] arachidonic acid was added in buffer to give a final concentration of 6.3 uM and 0.2 µCi per incubation, and the reaction continued at 29 °C for 2 min. The reaction was terminated by adding 1 ml of acetone and cooling on ice, 0.5 ml of ice-cold saline and 10 µl of 2N formic acid were added, and the mixture was extracted with 2 x 2 ml of chloroform. The extract was stored under N2at -20°C until analysis by chromatography. Activity was measured as the percentage of total radioactivity found in 5-HETE and 5,12-diHETE, and inhibition calculated as the decrease in formation of the sum of these two species in compound-treated incubates relative to control incubates.

[2] = tested on: Phospholipase A2 (Naja naja venom, Sigma); experiment: Inhibition of Phospholipase A2 Activity (Method A); assay type: biochemical; settings: inhibition of arachidonic acid release, tested in triplicate
Description: Inhibition of Phospholipase A2 Activity
Enzyme: Phospholipase A2 (Naja naja venom, Sigma)
Substrate: Diarachidoyl phosphatidylcholine (10.6mg) and α-1-palmitoyl-2-[1-^14C]-arachidonyl phosphatidylcholine (0.5uCi; 52.9mCi/mMol) in 28ml of TrisHCl buffer=100mM, pH 8.7) ultrasonicated.
Assay: Incubations containing PLA2 (0.125ng) in Tris HC1 buffer (lOOmM, pH 8.7) and CaCl2 (4mM) were prepared on ice. Immediately prior to incubation at 37°C 5µl of DMSO or compound in DMSO were added. The final assay volume was 1.75ml. After 10 minutes at 37 °C 750µl of substrate was added, with mixing, and the incubation continued for a further 15 min. The reaction was terminated by placing on ice and adding 5ml CHCl3:MeOH (2:lv/v).
The lower organic phase was removed and stored under N2 at-20 °C until analysed. Analysis was by 1-dimensional t.l.c. on polygram Sil G sheets in the solvent system petroleum ether: diethyl ether: acetic acid (60:40:1,v/v). In this system the phospholipid remains at the origin and the arachidonic acid has an approximate Rf. value of 0.36. The areas of interest were cut from the plates and radioactivity determined by liquid scintillation counting.
All compounds were tested in triplicate.
Calculation: The radioactivity of the arachidonic acid is expressed as a percentage of the total dpm cut from the plate. The percentage inhibition of arachidonic acid release compared to that of the control was calculated after correction for the level of spontaneous release where: • x = % corrected mean arachidonic acid release in control • y = % corrected arachidionic acid release after inhibition • % inhibition [formula]
The mean of the triplicate samples was calculated giving z + standard deviation%.

| Compound | inhibition at 20 µM [1] | Phospholipase A2 Inhibition at 20µM (%) [2] |
| --- | --- | --- |
| COC(=O)c1sccc1NC(=O)C=Cc1ccc(OC)c(OC)c1 [Example 6, Methyl-3[N-(3,4-dimethoxycinnamoyl)amino]thiophene-2-carboxylate] | 81% | 31% |
| COC(=O)c1sccc1NC(=O)C=Cc1ccc(O)c(O)c1 [Example 7] | 93% | 84% |
| COC(=O)c1sccc1NC(=O)C=Cc1ccc(O)c(OC)c1 [Example 8] | 98% | 26% |
| CCOC(=O)c1c[nH]nc1NC(=O)C=Cc1ccc(O)c(O)c1 [Example 9, Ethyl 3-[N-(3,4-dihydroxycinnamol)amino]pyrazole-4-carboxylate] | 97% | 71% |
| CCOC(=O)c1cccnc1NC(=O)C=Cc1ccc(O)c(O)c1 [Example 10, Ethyl-2 [N-(3,4-dihydroxycinnamoyl)amino]pyridine-3-carboxylate] | 95% | 10% |
| CCOC(=O)c1c(NC(=O)C=Cc2ccc(O)c(O)c2)sc2c1CCCC2 [Example 11, Ethyl-2[N-3,4-dihydroxycinnamoyl)amino]4,5,6,7-tetrahydrobenzo [bj thiophene-3-carboxylate] | 91% | 92% |
| O=C(C=Cc1ccc(O)c(O)c1)Nc1ccsc1C(=O)O [Example 12] | 88% | 36% |
| COc1cc(C=CC(=O)Nc2ccsc2C(=O)O)ccc1O [Example 13, 3-[N-(4-hydroxy-3-methoxycinnamoyl)-amino]thiophene-2-carboxylic acid.] | 64% | 26% |
| O=C(C=Cc1ccc(O)c(O)c1)Nc1ncccc1C(=O)O [Example 14, 2-[N-(3,4-dihydroxycinnamoyl)amino]pyridine 3-carboxylic acid] | 67% |  |
| COc1ccc(C=CC(=O)Nc2ccsc2C(=O)O)cc1OC [Example 15, 3-[N-(3,4-Dimethoxycinnamoyl)amino]thiophene-2-carboxylic acid] | 0% | 10% |
| COC(=O)c1sc(-c2ccc(Cl)cc2)cc1NC(=O)C=Cc1ccc(OC(C)=O)c(OC(C)=O)c1 [Example 16, Methyl-5-(4-chlorophenyl)-3-(3,4-diacetoxycinnamoyl-amino)-thiophene-2-carboxylate] | 60% |  |
